# Measured values taken from the supplement of paper PMC10307832.
# Compound: C1CSC2=C(C(=O)N1)SC3=C2C=C(C=C3)O [kb NB 142-70] + C[C@@H](Oc1cc(-c2cnn(C3CCNCC3)c2)cnc1N)c1c(Cl)ccc(F)c1Cl [Crizotinib] (partner 1 µM)
# Test: relative viability (nuclei count vs DMSO), 5 days (fraction); higher = more cells survive
# Details: first compound 3.162 µM
# Summary of the method: (§1)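 Medians of duplicate plates are given as relative viability. That measure is the nuclei count in treated wells divided by the count in vehicle wells. Counts were taken on 4× images of lung cancer cell lines in 1536-well plates, 5 days after pin-tool dosing the day after seeding with one drug alone or a fixed anchor-drug dose plus five library-drug doses (not always all listed) in √10 steps.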
row,Cell Line,relative viability
1,NCI-H1651,0.879
2,EPLC-272H,0.428
3,NCI-H2228,0.27
4,NCI-H1792,0.914
5,NCI-H1355,1.05
6,NCI-H3122,0.192
7,NCI-H1437,0.946
8,NCI-H1755,0.915
9,NCI-H2023,0.551
10,HCC-15,0.813
11,PC-14,0.92
12,EKVX,1.19
13,LC-2-ad,0.421
14,NCI-H1944,1.23
15,NCI-H1975,0.842
16,RERF-LC-KJ,0.924
17,ABC-1,0.497
18,NCI-H358,0.136
19,NCI-H650,0.449
20,PC-3 [JPC-3],0.916

# Compound: C1CSC2=C(C(=O)N1)SC3=C2C=C(C=C3)O [kb NB 142-70] + C[C@]1(O)C[C@@H](c2nc(-c3ccc4ccc(-c5ccccc5)nc4c3)c3c(N)nccn32)C1 [Linsitinib] (partner 1 µM)
# Test: as above
# Details: first compound 0.1 µM
# Summary of the method: as §1
row,Cell Line,relative viability
1,NCI-H322M,0.89
2,LCLC-97TM1,0.192
3,NCI-H2009,1.26
4,A-427,1.04
5,NCI-H661,0.561
6,NCI-H1734,0.813
7,NCI-H460,0.704
8,NCI-H2347,0.975
9,SK-LU-1,1.26
10,201T,1.04
11,NCI-H1915,1.11
12,HCC-827,0.921
13,LXF-289,0.914
14,NCI-H23,0.708
15,NCI-H647,1.1
16,CAL-12T,0.859
17,NCI-H1651,1.04
18,EPLC-272H,1.07

row,Cell Line,relative viability
1,NCI-H2228,0.525
2,NCI-H1792,0.598
3,NCI-H1355,0.781
4,NCI-H3122,1.03
5,NCI-H1437,1.15
6,NCI-H1755,1
7,NCI-H2023,0.698
8,HCC-15,0.86
9,PC-14,0.982
10,EKVX,0.969
11,LC-2-ad,0.791
12,NCI-H1944,1.17
13,NCI-H1975,0.946
14,RERF-LC-KJ,0.918
15,ABC-1,0.976
16,NCI-H358,0.654
17,NCI-H650,0.908
18,PC-3 [JPC-3],0.971

# Same assay, conditions: first compound 1 µM
row,Cell Line,relative viability
1,NCI-H322M,1.03
2,LCLC-97TM1,0.187
3,NCI-H2009,1.26
4,A-427,1.12
5,NCI-H661,0.607
6,NCI-H1734,0.734
7,NCI-H460,1
8,NCI-H2347,1.03
9,SK-LU-1,0.986
10,201T,1.05
11,NCI-H1915,1.11
12,HCC-827,0.992
13,LXF-289,0.92
14,NCI-H23,0.529
15,NCI-H647,1.2
16,CAL-12T,0.869
17,NCI-H1651,0.929
18,EPLC-272H,1.05

row,Cell Line,relative viability
1,NCI-H2228,0.872
2,NCI-H1792,0.616
3,NCI-H1355,0.835
4,NCI-H3122,1.01
5,NCI-H1437,1.1
6,NCI-H1755,0.991
7,NCI-H2023,0.673
8,HCC-15,0.89
9,PC-14,0.968
10,EKVX,1.01
11,LC-2-ad,0.825
12,NCI-H1944,1.24
13,NCI-H1975,1.11
14,RERF-LC-KJ,0.957
15,ABC-1,0.984
16,NCI-H358,0.522
17,NCI-H650,0.878
18,PC-3 [JPC-3],0.98

# Same assay, conditions: first compound 3.162 µM
row,Cell Line,relative viability
1,NCI-H322M,0.938
2,LCLC-97TM1,0.172
3,NCI-H2009,0.955
4,A-427,1.01
5,NCI-H661,0.602
6,NCI-H1734,0.553
7,NCI-H460,0.277
8,NCI-H2347,1.03
9,SK-LU-1,0.557
10,201T,1.02
11,NCI-H1915,0.716
12,HCC-827,0.902
13,LXF-289,0.916
14,NCI-H23,0.289
15,NCI-H647,1.17
16,CAL-12T,1.03
17,NCI-H1651,0.376
18,EPLC-272H,0.599

row,Cell Line,relative viability
1,NCI-H2228,0.629
2,NCI-H1792,0.688
3,NCI-H1355,0.757
4,NCI-H3122,0.924
5,NCI-H1437,1.07
6,NCI-H1755,1.06
7,NCI-H2023,0.396
8,HCC-15,0.697
9,PC-14,0.955
10,EKVX,1.04
11,LC-2-ad,0.677
12,NCI-H1944,1.18
13,NCI-H1975,0.519
14,RERF-LC-KJ,0.923
15,ABC-1,0.683
16,NCI-H358,0.146
17,NCI-H650,0.755
18,PC-3 [JPC-3],0.881

# Compound: NCC(=O)Nc1ccc(-n2nc(C(F)(F)F)cc2-c2ccc3c(ccc4ccccc43)c2)cc1 + COc1cccc2cc(-c3nc([C@H]4CC[C@H](C(=O)O)CC4)n4ncnc(N)c34)[nH]c12 [OSI-027] (partner 0.5 µM)
# Test: as above
# Details: first compound 0.02 µM
# Summary of the method: as §1
row,Cell Line,relative viability
1,NCI-H322M,0.532
2,LCLC-97TM1,0.656
3,NCI-H2009,0.573
4,NCI-H661,0.681
5,NCI-H1734,0.561
6,NCI-H460,0.583
7,NCI-H2347,0.465
8,SK-LU-1,0.343
9,201T,0.806
10,NCI-H1915,0.463
11,HCC-827,0.771
12,LXF-289,0.67
13,NCI-H23,0.576
14,NCI-H647,0.494
15,CAL-12T,0.619
16,NCI-H1651,0.655
17,EPLC-272H,0.307
18,NCI-H2228,0.672
19,NCI-H1792,0.657
20,NCI-H1355,0.35
21,NCI-H3122,1.04
22,NCI-H1437,0.889
23,NCI-H1755,0.711
24,NCI-H2023,0.381
